From the NIST ThermoML archive (doi:10.1021/je5005752)
Numbers after ± are expanded uncertainties.

Assay: xn = mol fraction of the nth substance listed
Conditions: 101 kPa, Liquid; for viscosity: Falling or rolling sphere viscometry; for mass density: Vibrating tube method

CCCC(=O)OCC [ethyl butanoate] + CCCO
Conditions | mass density [kg/m3] | viscosity [mPa·s]
288.15 K, x1 = 0.1001 | 819.96 ± 0.21 | 1.784 ± 0.038
288.15 K, x1 = 0.2 | 830.48 ± 0.21 | 1.392 ± 0.03
288.15 K, x1 = 0.2999 | 839.77 ± 0.21 | 1.151 ± 0.025
288.15 K, x1 = 0.3994 | 848.08 ± 0.22 | 1.008 ± 0.022
288.15 K, x1 = 0.4999 | 855.6 ± 0.22 | 0.9046 ± 0.019
288.15 K, x1 = 0.6002 | 862.45 ± 0.23 | 0.8354 ± 0.018
288.15 K, x1 = 0.6998 | 868.56 ± 0.24 | 0.7874 ± 0.017
288.15 K, x1 = 0.8001 | 874.16 ± 0.25 | 0.7517 ± 0.016
288.15 K, x1 = 0.9001 | 879.26 ± 0.25 | 0.7286 ± 0.016
288.15 K, x1 = 1 | 884.16 ± 0.27 | 0.7224 ± 0.016
293.15 K, x1 = 0.1001 | 815.72 ± 0.21 | 1.599 ± 0.034
293.15 K, x1 = 0.2 | 826.03 ± 0.21 | 1.262 ± 0.027
293.15 K, x1 = 0.2999 | 835.14 ± 0.21 | 1.054 ± 0.023
293.15 K, x1 = 0.3994 | 843.3 ± 0.22 | 0.9293 ± 0.02
293.15 K, x1 = 0.4999 | 850.69 ± 0.22 | 0.8397 ± 0.018
293.15 K, x1 = 0.6002 | 857.44 ± 0.23 | 0.779 ± 0.017
293.15 K, x1 = 0.6998 | 863.46 ± 0.24 | 0.737 ± 0.016
293.15 K, x1 = 0.8001 | 868.99 ± 0.25 | 0.706 ± 0.015
293.15 K, x1 = 0.9001 | 874.03 ± 0.26 | 0.6861 ± 0.015
293.15 K, x1 = 1 | 878.9 ± 0.27 | 0.6808 ± 0.015
298.15 K, x1 = 0.1001 | 811.45 ± 0.21 | 1.438 ± 0.031
298.15 K, x1 = 0.2 | 821.55 ± 0.21 | 1.147 ± 0.025
298.15 K, x1 = 0.2999 | 830.49 ± 0.21 | 0.9686 ± 0.021
298.15 K, x1 = 0.3994 | 838.5 ± 0.22 | 0.8586 ± 0.018
298.15 K, x1 = 0.4999 | 845.76 ± 0.22 | 0.7808 ± 0.017
298.15 K, x1 = 0.6002 | 852.4 ± 0.23 | 0.7275 ± 0.016
298.15 K, x1 = 0.6998 | 858.34 ± 0.24 | 0.6906 ± 0.015
298.15 K, x1 = 0.8001 | 863.8 ± 0.25 | 0.6636 ± 0.014
298.15 K, x1 = 0.9001 | 868.79 ± 0.26 | 0.6465 ± 0.014
298.15 K, x1 = 1 | 873.62 ± 0.27 | 0.643 ± 0.014
303.15 K, x1 = 0.1001 | 807.15 ± 0.21 | 1.3 ± 0.028
303.15 K, x1 = 0.2 | 817.04 ± 0.21 | 1.048 ± 0.022
303.15 K, x1 = 0.2999 | 825.81 ± 0.22 | 0.8932 ± 0.019
303.15 K, x1 = 0.3994 | 833.68 ± 0.22 | 0.7965 ± 0.017
303.15 K, x1 = 0.4999 | 840.81 ± 0.23 | 0.727 ± 0.016
303.15 K, x1 = 0.6002 | 847.35 ± 0.23 | 0.68 ± 0.015
303.15 K, x1 = 0.6998 | 853.2 ± 0.24 | 0.6481 ± 0.014
303.15 K, x1 = 0.8001 | 858.59 ± 0.25 | 0.624 ± 0.014
303.15 K, x1 = 0.9001 | 863.53 ± 0.26 | 0.6098 ± 0.013
303.15 K, x1 = 1 | 868.33 ± 0.27 | 0.6072 ± 0.013
308.15 K, x1 = 0.1001 | 802.83 ± 0.21 | 1.179 ± 0.025
308.15 K, x1 = 0.2 | 812.51 ± 0.21 | 0.959 ± 0.021
308.15 K, x1 = 0.2999 | 821.1 ± 0.22 | 0.8239 ± 0.018
308.15 K, x1 = 0.3994 | 828.82 ± 0.22 | 0.7391 ± 0.016
308.15 K, x1 = 0.4999 | 835.83 ± 0.23 | 0.6786 ± 0.015
308.15 K, x1 = 0.6002 | 842.27 ± 0.23 | 0.638 ± 0.014
308.15 K, x1 = 0.6998 | 848.03 ± 0.24 | 0.6089 ± 0.013
308.15 K, x1 = 0.8001 | 853.36 ± 0.25 | 0.5882 ± 0.013
308.15 K, x1 = 0.9001 | 858.26 ± 0.26 | 0.5756 ± 0.013
308.15 K, x1 = 1 | 863.02 ± 0.27 | 0.5736 ± 0.013
313.15 K, x1 = 0.1001 | 798.47 ± 0.21 | 1.073 ± 0.023
313.15 K, x1 = 0.2 | 807.94 ± 0.21 | 0.8796 ± 0.019
313.15 K, x1 = 0.2999 | 816.35 ± 0.22 | 0.7599 ± 0.016
313.15 K, x1 = 0.3994 | 823.93 ± 0.22 | 0.6873 ± 0.015
313.15 K, x1 = 0.4999 | 830.81 ± 0.23 | 0.6338 ± 0.014
313.15 K, x1 = 0.6002 | 837.16 ± 0.23 | 0.598 ± 0.013
313.15 K, x1 = 0.6998 | 842.84 ± 0.24 | 0.5722 ± 0.012
313.15 K, x1 = 0.8001 | 848.11 ± 0.25 | 0.5543 ± 0.012
313.15 K, x1 = 0.9001 | 852.96 ± 0.26 | 0.544 ± 0.012
313.15 K, x1 = 1 | 857.7 ± 0.27 | 0.5424 ± 0.012
318.15 K, x1 = 0.1001 | 794.06 ± 0.21 | 0.9782 ± 0.021
318.15 K, x1 = 0.2 | 803.33 ± 0.21 | 0.8084 ± 0.017
318.15 K, x1 = 0.2999 | 811.58 ± 0.22 | 0.7044 ± 0.015
318.15 K, x1 = 0.3994 | 819 ± 0.22 | 0.6398 ± 0.014
318.15 K, x1 = 0.4999 | 825.77 ± 0.23 | 0.5926 ± 0.013
318.15 K, x1 = 0.6002 | 832 ± 0.23 | 0.5612 ± 0.012
318.15 K, x1 = 0.6998 | 837.62 ± 0.24 | 0.5398 ± 0.012
318.15 K, x1 = 0.8001 | 842.82 ± 0.25 | 0.5227 ± 0.011
318.15 K, x1 = 0.9001 | 847.64 ± 0.26 | 0.5138 ± 0.011
318.15 K, x1 = 1 | 852.36 ± 0.27 | 0.5132 ± 0.011
323.15 K, x1 = 0.1001 | 789.62 ± 0.21 | 0.9018 ± 0.019
323.15 K, x1 = 0.2 | 798.67 ± 0.22 | 0.7475 ± 0.016
323.15 K, x1 = 0.2999 | 806.74 ± 0.22 | 0.6572 ± 0.014
323.15 K, x1 = 0.3994 | 814.03 ± 0.22 | 0.601 ± 0.013
323.15 K, x1 = 0.4999 | 820.68 ± 0.23 | 0.5568 ± 0.012
323.15 K, x1 = 0.6002 | 826.83 ± 0.23 | 0.5301 ± 0.011
323.15 K, x1 = 0.6998 | 832.37 ± 0.24 | 0.5106 ± 0.011
323.15 K, x1 = 0.8001 | 837.52 ± 0.25 | 0.4955 ± 0.011
323.15 K, x1 = 0.9001 | 842.3 ± 0.26 | 0.488 ± 0.011
323.15 K, x1 = 1 | 847 ± 0.27 | 0.487 ± 0.011
